EP0072027A1, “Antiviral compounds” (THE WELLCOME FOUNDATION LIMITED, priority 1981, dated 1983)
Marks after values point to notes of the source that are not given here.

Tests used:
[1] = tested on: Equine rhinopneumonitis virus (EHV-1); assay: In vivo activity against equine rhinopneumonitis virus in hamsters (Example 14), intraperitoneal and oral; set-up: species or system Syrian weanling hamsters
Method: Male cream Syrian weanling hamsters, 40-50 g, 21-24 days old, were caged in groups of 5 and given water and food ad lib.
Equine rhinopneumonitis virus (EHV-1), hamster adapted Vaccine Strain 'Pneumabort' was used; the vaccine was diluted 10^-1 in tissue culture fluid and this stock stored in 1 ml aliquots in sealed glass vials at -70°C. On Day 0 hamsters to be infected received 0.2 ml stock vaccine virus, diluted further 2 x 10^-1 in phosphate buffered saline, subcutaneously in the left flank.
9-/(2-Hydroxy-l-hydroxymethylethoxy)methyl/guanine (hereinafter referred to as 759U) and acyclovir were made up as aqueous solutions in sterile distilled water in the concentrations specified below.
Intraperitoneal administration: from Day 0 to Day 4, inclusive, hamsters received 759U or acyclovir in divided twice daily doses in aqueous solution, the concentration of 759U varying as following, namely 5 mg/ml to give a dose rate of 100 or 50 mg/kg/day, 1.2 mg/ml for 20 mg/kg/day, […] for 4 mg/kg/day and 0.036 mg/ml for 2 mg/kg/day. Untreated control hamsters received an equivalent volume of sterile distilled water.
A stock solution of 759U was made in sterile distilled water at 0.304 mg/ml and then diluted in 3-fold steps to 0.101 and 0.034 mg/ml. Hamsters were given medicated drinking water for 5 days commencing 5 hours pre-infection. A control group was supplied with unmedicated water.
Acyclovir was dissolved in sterile distilled water at 2 mg/ml with the addition of a little sodium hydroxide and warming to 42°C to facilitate solution. Hamsters were given medicated drinking water, containing acyclovir at 2 mg/ml, for 5 days commencing 5 hours pre-infection. […] A control group supplied with unmedicated water was set up.

Herpes simplex type 1 = assay: In vitro plaque reduction in VERO cell cultures (Example 16); type: cell-based; conditions: for IC50: Human alphaherpesvirus 1, Vero, VERO cells
Method: 60mm plastic cell culture dishes were seeded with a VERO cell suspension (6 ml of 2 x 10^5 cells/ml) in VERO cell growth medium comprising 5% foetal calf serum, 10% Eagles minimal essential medium, 0.11% sodium bicarbonate,0.25% Crystamycin.
(50,000 units/ml sodium benzyl penicillin B.P. and 50 mg/ml streptomcyin sulphate B.P.). The dishes were gently shaken to ensure the complete dispersion of the cells and then the cultures were incubated at 37°C in an atmosphere of 5% CO2/air overnight to attain confluency. The growth medium was then replaced with 2 ml of virus (Herpes simplex type 1) inoculum in phosphate buffered saline (PBS). The virus concentration was such as to induce the formation of 200-400 plaques/plate. A period of 1 hour was allowed for virus absorption at 37°C in 5% COZair, after which time the plates were drained and overlay medium (8 ml) was added at 42 °C. The overlay medium consisted of 0.6% agarose, 2% foetal calf serum, 10% Eagle's minimal essential medium, 0.11% sodium bicarbonate and 0.25% Crystamycin.
Doubling dilutions in micromolarity of active compound were prepared in the overlay and replicate cultures were fed with the maintenance medium overlay containing a range of concentrations of the compound. Untreated virus control cultures and uninfected cultures were also prepared. The overlay was allowed to solidify at room temperature before the cultures were returned to the incubator at 37°C in 5% CO2/air for 4 days. The cultures were then fixed with 10% formalin in PBS for 30 minutes to 1 hour; the overlay was removed and the cells were stained with 0.05% w/v methyl violet in 20% methanol. The resultant plaques were counted and expressed as a percentage of the plaque count of the untreated virus control cultures. These values were then plotted against the log10 of the compound concentration and the IC50 values representing the amount of the compound required to reduce the plaque count by 50% was read from the resulting dose-response line.

[2] = tested on: herpes simplex virus type 1; assay: Comparative in vivo activity against herpetic encephalitis in mice (Example 18); set-up: species or system CD.1 mice; conditions: for Mean reciprocal survival time: 100 mg/kg/dose twice daily for 4½ days, 300 LD50
Method: CD.1 mice weighing 16 - 20 gm were obtained from Charles River, Manston, Kent, U.K. The animals were housed in groups of approximately 10 and were given food and water ad lib.
The compounds namely acyclovir, 134U, 759U and 457U, were prepared as suspensions or solutions in sterile water at a concentration of 20 mg/ml prior to each experiment, and were stored at 4°C during the dosing period.
The ICI strain of herpes simplex virus type 1 was used for all experiments at a concentration of 300 LD50 (10^5 pfu)/ml). Dilutions from virus stocks ([…]) were prepared in PBS 'A'.
The test procedure is analoguous to that described in Example 13.
Three experiments were performed, in which three routes of compound administration were examined: i) subcutaneous, ii) oral and iii) intraperitoneal. […]

[3] = 50 mg/kg/day intraperitoneal, Day 2, 10 in group
[4] = 50 mg/kg/day intraperitoneal, Day 3, 10 in group
[5] = 50 mg/kg/day intraperitoneal, Day 4, 10 in group
[6] = 50 mg/kg/day intraperitoneal, Day 5, 10 in group
[7] = 50 mg/kg/day intraperitoneal, Day 6, 10 in group
[8] = 50 mg/kg/day intraperitoneal, Day 7, 10 in group
[9] = 100 mg/kg/day intraperitoneal, Day 2, 10 in group
[10] = 100 mg/kg/day intraperitoneal, Day 3, 10 in group
[11] = 100 mg/kg/day intraperitoneal, Day 4, 10 in group
[12] = 100 mg/kg/day intraperitoneal, Day 5, 10 in group
[13] = 100 mg/kg/day intraperitoneal, Day 6, 10 in group
[14] = 100 mg/kg/day intraperitoneal, Day 7, 10 in group
[15] = Experiment 1, plaque count reduced by 50%
[16] = Experiment 2, plaque count reduced by 50%
[17] = Experiment 3, plaque count reduced by 50%

Work on `Nc1nc2c(ncn2COC(CO)CO)c(=O)[nH]1` [Example 759U, 9-[(2-hydroxy-1-hydroxymethylethoxy)methyl]guanine] yielded a Cumulative mortality ([1]; 2 mg/kg/day intraperitoneal, Day 2, 10 in group) of 0, a Cumulative mortality ([1]; 2 mg/kg/day intraperitoneal, Day 3, 10 in group) of 0 and a Cumulative mortality ([1]; 2 mg/kg/day intraperitoneal, Day 4, 10 in group) of 0. The Cumulative mortality ([1]; 2 mg/kg/day intraperitoneal, Day 5, 10 in group) was 0, the Cumulative mortality ([1]; 2 mg/kg/day intraperitoneal, Day 6, 10 in group) was 0 and the Cumulative mortality ([1]; 2 mg/kg/day intraperitoneal, Day 7, 10 in group) was 0. For the same compound, the “control of virus-induced mortality” value ([1]; 2 mg/kg/day intraperitoneally) was “complete control”, the Cumulative mortality ([1]; 3 mg/kg/day oral (drinking water), Day 2, 10 in group) was 0 and the Cumulative mortality ([1]; 3 mg/kg/day oral (drinking water), Day 3, 10 in group) was 1. It also gave a Cumulative mortality ([1]; 3 mg/kg/day oral (drinking water), Day 4, 10 in group) of 1, a Cumulative mortality ([1]; 3 mg/kg/day oral (drinking water), Day 5, 10 in group) of 1 and a Cumulative mortality ([1]; 3 mg/kg/day oral (drinking water), Day 6, 10 in group) of 1. For the same compound, the Cumulative mortality ([1]; 3 mg/kg/day oral (drinking water), Day 7, 10 in group) was 1, the Cumulative mortality ([1]; 4 mg/kg/day intraperitoneal, Day 2, 10 in group) was 0 and the Cumulative mortality ([1]; 4 mg/kg/day intraperitoneal, Day 3, 10 in group) was 0. The Cumulative mortality ([1]; 4 mg/kg/day intraperitoneal, Day 4, 10 in group) was 0, the Cumulative mortality ([1]; 4 mg/kg/day intraperitoneal, Day 5, 10 in group) was 0 and the Cumulative mortality ([1]; 4 mg/kg/day intraperitoneal, Day 6, 10 in group) was 0. The Cumulative mortality ([1]; 4 mg/kg/day intraperitoneal, Day 7, 10 in group) was 0, the Cumulative mortality ([1]; 13 mg/kg/day oral (drinking water), Day 2, 10 in group) was 0 and the Cumulative mortality ([1]; 13 mg/kg/day oral (drinking water), Day 3, 10 in group) was 0. For the same compound, the Cumulative mortality ([1]; 13 mg/kg/day oral (drinking water), Day 4, 10 in group) was 0, the Cumulative mortality ([1]; 13 mg/kg/day oral (drinking water), Day 5, 10 in group) was 0 and the Cumulative mortality ([1]; 13 mg/kg/day oral (drinking water), Day 6, 10 in group) was 0. It also gave a Cumulative mortality ([1]; 13 mg/kg/day oral (drinking water), Day 7, 10 in group) of 0, a Cumulative mortality ([1]; 20 mg/kg/day intraperitoneal, Day 2, 10 in group) of 0 and a Cumulative mortality ([1]; 20 mg/kg/day intraperitoneal, Day 3, 10 in group) of 0. For the same compound, the Cumulative mortality ([1]; 20 mg/kg/day intraperitoneal, Day 4, 10 in group) was 0, the Cumulative mortality ([1]; 20 mg/kg/day intraperitoneal, Day 5, 10 in group) was 0 and the Cumulative mortality ([1]; 20 mg/kg/day intraperitoneal, Day 6, 10 in group) was 0. It also gave a Cumulative mortality ([1]; 20 mg/kg/day intraperitoneal, Day 7, 10 in group) of 0, a Cumulative mortality ([1]; 39 mg/kg/day oral (drinking water), Day 2, 10 in group) of 0 and a Cumulative mortality ([1]; 39 mg/kg/day oral (drinking water), Day 3, 10 in group) of 0. The Cumulative mortality ([1]; 39 mg/kg/day oral (drinking water), Day 4, 10 in group) was 0, the Cumulative mortality ([1]; 39 mg/kg/day oral (drinking water), Day 5, 10 in group) was 0 and the Cumulative mortality ([1]; 39 mg/kg/day oral (drinking water), Day 6, 10 in group) was 0. The Cumulative mortality ([1]; 39 mg/kg/day oral (drinking water), Day 7, 10 in group) was 0, the Cumulative mortality [1, 3] was 0 and the Cumulative mortality [1, 4] was 0. It also gave a Cumulative mortality [1, 5] of 0, a Cumulative mortality [1, 6] of 0 and a Cumulative mortality [1, 7] of 0. It also gave a Cumulative mortality [1, 8] of 0, a Cumulative mortality [1, 9] of 0 and a Cumulative mortality [1, 10] of 0. The Cumulative mortality [1, 11] was 0, the Cumulative mortality [1, 12] was 0 and the Cumulative mortality [1, 13] was 0. For the same compound, the Cumulative mortality [1, 14] was 1*, the “efficacy against EHV-1” value ([1]; orally at 3 mg/kg/day) was “only limited mortality” and the “efficacy against EHV-1” value ([1]; orally at 13 mg/kg/day) was “completely effective”. For the same compound, the “activity in vitro against Herpes simplex type I compared with acyclovir” value (Herpes simplex type 1) was “greater activity”, the IC50 (Herpes simplex type 1; [15]) was 90 nM and the IC50 (Herpes simplex type 1; [16]) was 50 nM. The IC50 (Herpes simplex type 1; [17]) was 36 nM, the IC50 (Herpes simplex type 1; Mean of Experiments 1-3) was 59 nM and the “Mean reciprocal survival time” value ([2]; Oral) was 0.146. For the same compound, the “antiviral effect compared with acyclovir and 134U” value ([2]; any of the three routes, difference highly significant) was “greatest antiviral effect”, the “Mean reciprocal survival time” value ([2]; i.p.) was 0.093 and the “Mean reciprocal survival time” value ([2]; s.c.) was 0.084.
With `Nc1nc2c(ncn2COCCO)c(=O)[nH]1` [acyclovir, 9-(2-hydroxyethoxymethyl) guanine, reference compound] the Cumulative mortality [1, 3] was 0, the Cumulative mortality [1, 4] was 1 and the Cumulative mortality [1, 5] was 2. For the same compound, the Cumulative mortality [1, 6] was 5, the Cumulative mortality [1, 7] was 6 and the Cumulative mortality [1, 8] was 6. The Cumulative mortality [1, 9] was 0, the Cumulative mortality [1, 10] was 0 and the Cumulative mortality [1, 11] was 1*. For the same compound, the Cumulative mortality [1, 12] was 2*, the Cumulative mortality [1, 13] was 2* and the Cumulative mortality [1, 14] was 3*. The Cumulative mortality ([1]; 100 mg/kg/day oral (drinking water 2 mg/ml), Day 2, 12 in group) was 0, the Cumulative mortality ([1]; 100 mg/kg/day oral (drinking water 2 mg/ml), Day 3, 12 in group) was 2 and the Cumulative mortality ([1]; 100 mg/kg/day oral (drinking water 2 mg/ml), Day 4, 12 in group) was 5. The Cumulative mortality ([1]; 100 mg/kg/day oral (drinking water 2 mg/ml), Day 5, 12 in group) was 7, the Cumulative mortality ([1]; 100 mg/kg/day oral (drinking water 2 mg/ml), Day 6, 12 in group) was 8 and the “efficacy against EHV-1” value ([1]; orally at 100 mg/kg/day for 5 days) was “poor efficacy”. The IC50 (Herpes simplex type 1; [15]) was 170 nM, the IC50 (Herpes simplex type 1; [16]) was 75 nM and the IC50 (Herpes simplex type 1; [17]) was 110 nM. The IC50 (Herpes simplex type 1; Mean of Experiments 1-3) was 118 nM, the “Mean reciprocal survival time” value ([2]; Oral) was 0.237 and the “Mean reciprocal survival time” value ([2]; i.p.) was 0.236. For the same compound, the “Mean reciprocal survival time” value ([2]; s.c.) was 0.174.
